Data set [1] deals with T98g cells. Kind of data set: Cell viability assay (WST-1), toxic potency and efficacy at T98g cells. The class given is cell-based. The conditions noted are these: Homo sapiens, 72 h. Here is the method:
Cells were plated media supplemented with 10% serum in 96-well plates (10^4 cells per wellI; 0.1 ml per well). Once they reached ˜70% confluence, they were rinsed with PBS and kept for an additional 24 hrs in media supplemented with 1% serum, at which time drugs or vehicle (DMSO, 0.1%, prepared in 10 μl serum-free media) were directly added to each well. After 3 days, cell viability was assessed using the Cell Proliferation Reagent WST-1 (Roche, Indianapolis, Ind.). Briefly, WST-1 reagent (10 μl) was added to each well for 3 hrs at 37° C. with 5% CO2 and WST-1 products were read at 450 nm using Packard SpectraCount™.
Because the strongest toxic effect of WIN55212-2 was measured in T98g cells, these cells are used as readout to study the structure activity relationship (SAR) of AAI compounds at inducing cell death through AAI receptors.
In general terms: Tetrazolium dyes change colour on reduction, which living cells bring about.

For data set [2], the system named is cardiac and motorneuron progenitors. Kind of data set: Toxic profile in progenitor cells. The data set is classed as cell-based. To be noted: compared with astrocytoma cell lines. As for the experimental part: JWH-451 was tested for toxicity in cells expressing GPR124.
For data set [3], the system named is U251 flank tumors. Nature of the data set: U251 flank tumors in nude mice, tumor growth. The data set is classed as in vivo. As for the experimental part:
Nude mice that had been implanted with U251 flank tumors were treated with a daily regimen of JWH-451. This experiment was performed as follow: 10^6 U251 cells were implanted in the flanks of nude mice and the tumor was allowed to grow until it reached a size of 250 mm^3, at which point the mice were enrolled in daily treatment. Tumor growth was then measured and expressed as a function of initial tumor size.

For data set [4], the system named is DBT tumors. Nature of the data set: Lymphocyte and brain macrophage invasion of DBT tumors implanted in mouse brain. To be noted: daily i.p. (40 mg/Kg per FIG. 7), tumors implanted three weeks in mouse brain. The data set is classed as in vivo, mice (BALB/c). Here is the method: Effect of JWH-451 on the immune cell invasion of syngenic mouse model of astrocytomas tumors (mouse astrocytoma cell implanted into the brain of wild type mice hosts with intact immune systems) was measured. Briefly, mice (BALB/c, 8 week-old, male, Charles River) were used for this study and housed under specific-pathogen-free conditions for at least one week prior to surgery. Twenty-four hours before surgery, 5×10^6 DBT cells were harvested in 10 ml of DMEM supplemented with 10% heat-inactivated FBS, 10 U/ml penicillin and 10 μg/ml streptomycin and seeded in T75 cm^2 cell culture flasks (one flask per mouse). Just before surgery, cells from one flask were detached with trypsin-EDTA, recovered in DMEM supplemented with 10% heat-inactivated FBS, centrifuged/rinsed twice with MEM (serum free) and resuspended at 10^6 cells/u1 of ice-cold MEM (ready for injection). Mice were anesthetized with ketamine/xylazine (given […] i.p., 130 mg/kg ketamine/8.8 mg/kg xylazine) and placed in a stereotactic instrument (David Kopf Instruments, CA) on an isothermal pad (Deltaphase®, Braintree Scientific, Inc, Braintree, Mass.). After midline incision of the scalp, a 25-G needle was used to perform a craniostomy at 2 mm cranial from bregma and 1.5 mm left lateral. […]

Structures are written as SMILES.

Consider `CCn1c(C)c(C(=O)c2ccc(C)c3ccccc23)c2ccccc21` [JWH-451, 1-Ethyl-2-methyl-3-(4-methyl-1-napthoyl)indole], for which the Emax in data set [1] (read-out: Toxic potency at T98g cells (percent efficacy)) is 81%. The EC50 in data set [1] (read-out: Toxic potency at T98g cells potency μM) came to 1.1 µM. Also, the “toxic effect on cardiac and motorneuron progenitors” value in data set [2] is listed as “much less toxic effect”. In addition, in data set [3] (daily i.p. injection 15 mg/Kg, U251 flank tumors, nude mice), the “tumor growth in vivo” value was “significantly reduced tumor growth”. For the same molecule, the “growth of U251 gliomas implanted in the flanks of nude mice” value in data set [3] (daily i.p. injections 5 mg/Kg (FIG. 5 legend), compared to controls) was “inhibits the growth”. Further, in data set [4], the “brain macrophage density / number invading DBT tumors” value is “two fold increase” and the “lymphocyte density / number invading DBT tumors” value was “two fold increase”.

The record behind these values is patent US9034895B2, “Composition and methods for treating glioblastoma” (University of Washington Through its Center for …, priority 2010, dated 2015).
